Read-outs that look alike come from different tables or passages of the source.
Columns and labels:
Mtb Lpd = Mtb Lpd (Mycobacterium tuberculosis (strain ATCC 25618 / H37Rv), UniProt P9WHH9); type: biochemical
[1] = microsomes
[2] = 30 min preincubation, read-out: LPD IC50 (μM) w/ 30 min preincubation

Structure (SMILES) | IC50 (Mtb Lpd; read-out: LPD IC50) | Human Liver Microsome Stability [1] | IC50 (Mtb Lpd; [2])
Cc1cc(S(=O)(=O)N(C)CC(=O)Nc2ccc(C3CCCCC3)c(C)c2)c2[nH]c(C)cc2c1 [Example 42] | 0.573 µM | 23 µL/min/mg | 
Cc1cc(S(=O)(=O)N(C)CC(=O)Nc2ccc3cccnc3c2)c2n[nH]cc2c1 [Example 61] | 0.0229 µM | 122 µL/min/mg | 
Cc1cc(S(=O)(=O)N2CC[C@H]2C(=O)Nc2ccc3c(c2)N(C)CCO3)c2[nH]ncc2c1 [Example 41] | 0.0356 µM | 197 µL/min/mg | 
Cc1cc(S(=O)(=O)N2CC[C@H]2C(=O)Nc2ccc3c(c2)N(C2COC2)CCO3)c2[nH]c(C#N)cc2c1 [Example 209] |  | 212 µL/min/mg | 0.033 µM
CCCCNC(=O)CN(C)S(=O)(=O)c1cc(C)cc2cc(C#N)[nH]c12 [Example 223] |  | 62 µL/min/mg | 0.028 µM
C#CCNC(=O)[C@@H]1CCN1S(=O)(=O)c1cc(C)cc2cn[nH]c12 [Example 201] | 0.222 µM | 14 µL/min/mg | 
Cc1cc(S(=O)(=O)N2CC[C@H]2C(=O)Nc2ccn(C)c(=O)c2)c2[nH]c(C#N)cc2c1 [Example 187, (S)-1-((2-cyano-5-methyl-1H-indol-7-yl)sulfonyl)-N-(1-methyl-2-oxo-1,2-dihydropyridin-4-yl)azetidine-2-carboxamide] | 0.135 µM | -2 µL/min/mg | 
Cc1cc(S(=O)(=O)N(C)CC(=O)NCc2cn(-c3ccccc3)nn2)c2[nH]ncc2c1 [Example 125, 2-((N,5-dimethyl-1H-indazole)-7-sulfonamido)-N-((1-phenyl-1H-1,2,3-triazol-4-yl)methyl)acetamide] | 0.048 µM | 520 µL/min/mg | 
Cc1cc(S(=O)(=O)N2CCC[C@@H](C(=O)Nc3ccc4c(c3)OCCN4C3COC3)C2)c2[nH]ncc2c1 [Example 170, N-1-((5-methyl-1H-indazol-7-yl)sulfonyl)-N-(4-(oxetan-3-yl)-3,4-dihydro-2H-benzo[b][1,4]oxazin-7-yl)piperidine-3-carboxamide] | 0.051 µM | 34 µL/min/mg | 
Cc1cc(S(=O)(=O)N2CC[C@H]2C(=O)Nc2ccn(C)c(=O)c2)c2[nH]ncc2c1 [Example 27, (S)-1-((5-methyl-1H-indazol-7-yl)sulfonyl)-N-(1-methyl-2-oxo-1,2-dihydropyridin-4-yl)azetidine-2-carboxamide] | 0.0545 µM | -8 µL/min/mg | 
Cc1cc(S(=O)(=O)N(C)CC(=O)Nc2ccc3c(c2)OCCN3C2CCOCC2)c2[nH]c(C#N)cc2c1 [Example 181, 2-((2-cyano-N,5-dimethyl-1H-indole)-7-sulfonamido)-N-(4-(tetrahydro-2H-pyran-4-yl)-3,4-dihydro-2H-benzo[b][1,4]oxazin-7-yl)acetamide] | 0.095 µM | 195 µL/min/mg | 
Cc1cc(S(=O)(=O)N2CC[C@H]2C(=O)Nc2ccc(N3CCOCC3)c(Cl)c2)c2[nH]c(C#N)cc2c1 [Example 195] | 0.111 µM | 64 µL/min/mg | 
COc1cc(NC(=O)CN(C)S(=O)(=O)c2cc(C)cc3cc(C#N)[nH]c23)ccn1 [Example 214, 2-((2-cyano-N,5-dimethyl-1H-indole)-7-sulfonamido)-N-(2-methoxypyridin-4-yl)acetamide] |  | 91 µL/min/mg | 0.021 µM
Cc1cc(S(=O)(=O)N(C)CC(=O)Nc2ccn(C3CC3)c(=O)c2)c2[nH]ncc2c1 [Example 98] | 0.093 µM | 28 µL/min/mg | 
Cc1cc(S(=O)(=O)N(C)CC(=O)Nc2nc3ccccc3o2)c2n[nH]cc2c1 [Example 76] | 0.0994 µM | 274 µL/min/mg | 
Cn1ccc(NC(=O)[C@@H]2CCN2S(=O)(=O)c2cc(Cl)cc3cn[nH]c23)cc1=O [Example 149] | 0.061 µM | 14 µL/min/mg | 
Cc1cc(S(=O)(=O)N(C)CC(=O)Nc2ccn3nccc3c2)c2[nH]ncc2c1 [Example 25] | 0.0204 µM | 275 µL/min/mg | 
